Earlier results as cited in patent US20050244498A1 (priority 2001, published 2005).

Details: in vivo

Row | SMILES | elimination half-life
1 | COc1ccc(C(CN(C)C)C2(O)CCCCC2)cc1 (racemic) [venlafaxine, (R/S)-1-[2-(dimethylamino)-1-(4methoxyphenyl)ethyl]cyclohexanol] | about 4 hours
2 | CN(C)CC(c1ccc(O)cc1)C1(O)CCCCC1 (centres unmarked) [active metabolite, O-desmethylvenlafaxine] | about 8 hours
